Reference: BindingDB's records for doi:10.7270/Q2JQ0ZDS (Sanford-Burnham Center for Chemical Genomics, 2009)
Several values for one entry are separate records, joined by “and”; a condition that tells them apart may be missing. Equal values may be shown once. Where a name gives a salt, the structure may show the parent alone.

Target: Intestinal-type alkaline phosphatase (Homo sapiens, UniProt P09923)
Experiment: inhibition of intestinal alkaline phosphatase – biochemical, luminescence, dose response (AID 1017)

Chain of Intestinal-type alkaline phosphatase (P09923 whole entry, looked up): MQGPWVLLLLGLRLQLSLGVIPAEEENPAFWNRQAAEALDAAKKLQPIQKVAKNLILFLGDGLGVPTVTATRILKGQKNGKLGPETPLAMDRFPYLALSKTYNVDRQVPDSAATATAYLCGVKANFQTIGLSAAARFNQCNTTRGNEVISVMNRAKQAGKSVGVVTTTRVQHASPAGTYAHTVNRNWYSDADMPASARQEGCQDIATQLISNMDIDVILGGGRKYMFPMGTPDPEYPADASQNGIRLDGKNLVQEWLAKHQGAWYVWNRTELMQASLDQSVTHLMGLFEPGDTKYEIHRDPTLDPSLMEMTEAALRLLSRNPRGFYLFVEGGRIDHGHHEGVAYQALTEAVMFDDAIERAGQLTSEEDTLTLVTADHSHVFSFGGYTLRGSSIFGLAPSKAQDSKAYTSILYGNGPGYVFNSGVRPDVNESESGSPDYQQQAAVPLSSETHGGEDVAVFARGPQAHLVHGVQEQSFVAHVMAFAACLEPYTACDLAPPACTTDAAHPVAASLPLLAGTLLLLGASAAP

Row | IC50 | IC50 (inactive by the depositor's call) [µM] | Compound
1 | > 100 µM |  | COC(=O)c1cc(-c2ccc(OC)cc2)[nH]n1 [MLS-0091975.0001]
2 | > 100 µM |  | COc1ccc(-c2[nH]nc3oc(=O)cc(C)c23)cc1
3 | > 100 µM |  | O=C(CNc1ccncc1)c1ccc(O)c(O)c1 [1-(3,4-dihydroxyphenyl)-2-(4-pyridylamino)ethanone]
4 | > 100 µM |  | COc1ccc(C)cc1S(=O)(=O)Nc1cccnc1 [2-Methoxy-5-methyl-N-(pyridin-3-yl)benzenesulfonamide]
5 | 4.35 µM |  | COc1ccc(-n2nnnc2SCC(=O)c2ccc(O)c(O)c2)cc1 [1-(3,4-dihydroxyphenyl)-2-(1-(4-methoxyphenyl)-1H-tetrazol-5-ylthio)ethanone]
6 | 10.1 µM |  | C=CCn1c(SCC(=O)c2ccc(O)c(O)c2)nnc1-c1ccccc1 [1-(3,4-dihydroxyphenyl)-2-[(5-phenyl-4-prop-2-enyl-1,2,4-triazol-3-yl)sulfanyl]ethanone]
7 | > 100 µM |  | Cc1cc(C)nc(SCC(=O)c2ccc(O)cc2)n1 [2-(4,6-dimethylpyrimidin-2-ylthio)-1-(4-hydroxyphenyl)ethanone]
8 | > 100 µM |  | Cn1nc(-c2ccc(F)cc2)cc1C(=O)O [5-(4-fluorophenyl)-2-methyl-3-pyrazolecarboxylic acid]
9 | > 6.25 µM and 20.7 µM |  | C=CCn1c(SCC(=O)c2ccc(O)c(O)c2)nnc1-c1ccccc1OC [1-(3,4-dihydroxyphenyl)-2-[[5-(2-methoxyphenyl)-4-prop-2-enyl-1,2,4-triazol-3-yl]sulfanyl]ethanone]
10 | > 100 µM |  | Oc1cc(-c2cccc3ccccc23)[nH]n1 [MLS-0067141.0001]
11 | 1.27 µM |  | CCc1nnc(SCC(=O)c2ccc(O)c(O)c2)[nH]1 [MLS-0315685.0001]
12 | 3.36 µM |  | Cc1ccc(-n2nnnc2SCC(=O)c2ccc(O)c(O)c2)cc1 [1-(3,4-dihydroxyphenyl)-2-[1-(4-methylphenyl)tetrazol-5-yl]sulfanylethanone]
13 | > 100 µM |  | COc1ccc(C)cc1S(=O)(=O)Nc1cnc2ccccc2c1 [2-Methoxy-5-methyl-N-(quinolin-3-yl)benzenesulfonamide]
14 | > 100 µM |  | COc1ccc2c(c1OC)C(=O)N(c1nnc(SC)[nH]1)C2=O [MLS-0146265.0001]
15 | > 100 µM |  | O=C1c2ccccc2C(=O)N1c1nncs1 [2-(1,3,4-thiadiazol-2-yl)isoindole-1,3-dione]
16 | > 100 µM |  | COc1ccc(C)cc1S(=O)(=O)Nc1ccc2ccccc2c1 [2-methoxy-5-methyl-N-(2-naphthalenyl)benzenesulfonamide]
17 | > 100 µM |  | O=C1c2ccccc2C(=O)C1c1nc2ccccc2[nH]1
18 | > 100 µM |  | O=C(CSc1nnc(-c2ccccc2Cl)[nH]1)c1ccc(O)c(O)c1 [1-[3,4-bis(oxidanyl)phenyl]-2-[[5-(2-chlorophenyl)-1H-1,2,4-triazol-3-yl]sulfanyl]ethanone]
19 | > 100 µM |  | O=C1c2c(Cl)c(Cl)c(Cl)c(Cl)c2C(=O)N1c1nc(Cc2ccccc2)n[nH]1 [MLS-0146263.0001]

Row | IC50 | IC50 (inactive by the depositor's call) [µM] | Compound
20 | > 100 µM |  | Cc1nc2ccccc2n1CC(=O)c1ccc(O)c(O)c1 [1-(3,4-dihydroxyphenyl)-2-(2-methyl-1-benzimidazolyl)ethanone;hydrochloride]
21 | > 100 µM |  | COC(=O)c1cc(-c2ccccc2)n[nH]1 [methyl 3-phenyl-1H-pyrazole-5-carboxylate]
22 | > 100 µM |  | CCn1c(CSc2nc3ccccc3s2)nnc1SCC(=O)c1ccc(O)c(O)c1 [2-[[5-(1,3-benzothiazol-2-ylsulfanylmethyl)-4-ethyl-1,2,4-triazol-3-yl]sulfanyl]-1-(3,4-dihydroxyphenyl)ethanone]
23 | > 100 µM |  | COc1ccc(OC)c(S(=O)(=O)Nc2cnc3ccccc3c2)c1
24 | > 100 µM |  | CCc1nccn1CC(=O)c1ccc(O)c(O)c1 [1-(3,4-dihydroxyphenyl)-2-(2-ethyl-1-imidazolyl)ethanone;hydrochloride]
25 | > 100 µM |  | COC(=O)c1cc(-c2ccc(C)cc2C)n[nH]1
26 | > 100 µM |  | COC(=O)c1cc(-c2ccc(Br)cc2)n[nH]1
27 | > 100 µM |  | COc1cc(C)c(Cl)cc1S(=O)(=O)Nc1cccnc1 [5-chloro-2-methoxy-4-methyl-N-(pyridin-3-yl)benzenesulfonamide]
28 | 40.4 µM |  | C=CCn1c(SCC(=O)c2ccc(O)c(O)c2)nnc1-c1cccnc1 [1-(3,4-dihydroxyphenyl)-2-[(4-prop-2-enyl-5-pyridin-3-yl-1,2,4-triazol-3-yl)sulfanyl]ethanone]
29 | 40.7 µM |  | O=C(O)c1ccc2c(c1)C(=O)N(c1nc(-c3cccnc3)n[nH]1)C2=O [1,3-dioxo-2-(5-pyridin-3-yl-1H-1,2,4-triazol-3-yl)isoindole-5-carboxylic acid]
30 | > 3.13 µM |  | COc1ccccc1-c1nc(SCC(=O)c2ccc(O)c(O)c2)n[nH]1 [1-(3,4-dihydroxyphenyl)-2-[[5-(2-methoxyphenyl)-1H-1,2,4-triazol-3-yl]sulfanyl]ethanone]
31 | 5.32 µM |  | O=C(CSc1nnc(-c2ccccc2)[nH]1)c1ccc(O)c(O)c1
32 | 49.5 µM |  | Cc1cc(C)nc(SCC(=O)c2ccc(O)c(O)c2)n1 [1-(3,4-dihydroxyphenyl)-2-(4,6-dimethylpyrimidin-2-ylthio)ethanone]
33 | > 100 µM |  | COc1ccc(OC)c(S(=O)(=O)Nc2cccnc2)c1 [2,5-Dimethoxy-N-(pyridin-3-yl)benzenesulfonamide]
34 | 43.4 µM |  | O=C(O)c1cc(-c2ccccc2Cl)n[nH]1 [3-(2-chlorophenyl)-1H-pyrazole-5-carboxylic acid]
35 | > 100 µM |  | O=C(c1[nH]nc2c1COc1ccccc1-2)N1CCCC1 [(2,4-dihydrochromeno[4,3-c]pyrazol-3-yl)(pyrrolidin-1-yl)methanone]
36 | > 100 µM |  | O=C(CSc1nnc(-c2ccccc2)[nH]1)c1ccc(O)cc1O [1-[2,4-bis(oxidanyl)phenyl]-2-[(5-phenyl-1H-1,2,4-triazol-3-yl)sulfanyl]ethanone]
37 | > 100 µM |  | O=C1c2ccccc2C(=O)N1c1nnc[nH]1 [2-(1H-1,2,4-triazol-5-yl)isoindole-1,3-dione]
38 | 53.3 µM |  | Cc1cnn(CC(=O)c2ccc(O)c(O)c2)c1 [1-(3,4-dihydroxyphenyl)-2-(4-methyl-1H-pyrazol-1-yl)ethanone]

Row | IC50 | IC50 (inactive by the depositor's call) [µM] | Compound
39 | 13.1 µM |  | C=CCn1c(SCC(=O)c2ccc(O)c(O)c2)nnc1-c1cccc(OC)c1 [1-(3,4-dihydroxyphenyl)-2-[[5-(3-methoxyphenyl)-4-prop-2-enyl-1,2,4-triazol-3-yl]sulfanyl]ethanone]
40 | > 100 µM |  | Cn1c(SCC(=O)c2ccc(O)c(O)c2)nnc1-c1ccccc1 [1-(3,4-dihydroxyphenyl)-2-(4-methyl-5-phenyl-4H-1,2,4-triazol-3-ylthio)ethanone]
41 | > 10 µM |  | O=C1c2c(Cl)c(Cl)c(Cl)c(Cl)c2C(=O)N1c1nnc[nH]1 [4,5,6,7-tetrachloro-2-(1H-1,2,4-triazol-5-yl)isoindole-1,3-dione]
42 |  | 32.8 | CCn1c(SCC(=O)c2ccc(O)c(O)c2)nnc1-c1ccccc1 [1-(3,4-Dihydroxy-phenyl)-2-(4-ethyl-5-phenyl-4H-[1,2,4]triazol-3-ylsulfanyl)-ethanone]
43 | > 100 µM |  | CCOc1ccc(Cl)cc1S(=O)(=O)Nc1cccnc1 [5-chloro-2-ethoxy-N-(pyridin-3-yl)benzenesulfonamide]
44 | > 100 µM |  | CCOC(=O)c1cc(-c2ccc(Cl)cc2)n[nH]1 [MLS-0111582.0001]
45 | > 100 µM |  | CCOC(=O)c1cc(-c2ccc3c(c2)OCCO3)n[nH]1
46 | 14.8 µM |  | O=C(Cn1cnc2ccccc21)c1ccc(O)c(O)c1 [2-(1-benzimidazolyl)-1-(3,4-dihydroxyphenyl)ethanone;hydrochloride]
47 | 0.539 µM and 0.922 µM |  | Oc1c2c(c(O)n1-c1nnc(Cc3ccccc3)[nH]1)CC=CC2 [MLS000100008]
48 | 0.11 µM and 0.157 µM |  | Oc1c2c(c(O)n1-c1nnc(-c3ccccc3)[nH]1)CC=CC2 [2-(5-Phenyl-2H-[1,2,4]triazol-3-yl)-3a,4,7,7a-tetrahydro-isoindole-1,3-dione]
49 | > 100 µM |  | COC(=O)c1cc(-c2ccc(Cl)cc2Cl)n[nH]1
50 | > 100 µM |  | Cn1nc(C(=O)O)cc1-c1ccc(F)cc1 [5-(4-fluorophenyl)-1-methyl-3-pyrazolecarboxylic acid]
51 | > 100 µM |  | COc1ccc(C(=O)CSc2nc(C)cc(C)n2)cc1 [2-(4,6-dimethylpyrimidin-2-ylthio)-1-(4-methoxyphenyl)ethanone]
52 | > 100 µM |  | COC(=O)c1cc(-c2ccc3ccccc3c2)[nH]n1 [MLS-0111546.0001]
53 | 9.95 µM |  | O=C1Nc2ccccc2C1C=NCCc1ccc(O)c(O)c1 (configuration not stated) [(3E)-3-[[2-(3,4-dihydroxyphenyl)ethylamino]methylene]oxindole]
54 | > 100 µM |  | Cc1cc(=O)oc2n[nH]c(-c3ccccc3)c12 [MLS-0013971.0001]
55 | 30.2 µM and 18.5 µM |  | O=C(Cn1ccnc1)c1ccc(O)c(O)c1 [1-(3,4-dihydroxyphenyl)-2-(1-imidazolyl)ethanone;hydrochloride]
56 | > 100 µM |  | O=C1c2c(Cl)c(Cl)c(Cl)c(Cl)c2C(=O)N1c1nnc(CCc2ccccc2)[nH]1

Row | Compound | IC50 | IC50 (inactive by the depositor's call) [µM]
57 | CCCCOc1ccc(-c2cc(C(=O)OC)[nH]n2)cc1 [methyl 3-(4-butoxyphenyl)-1H-pyrazole-5-carboxylate] | > 100 µM | 
